Laboratory results taken from patent US20210205264A1, “USE OF DELTA-TOCOTRIENOL FOR TREATING CANCER” (H. LEE MOFFITT CANCER CENTER & RESEARCH INSTITUTE INC., priority 2018, published 2021).
Peptide text beside a SMILES is read from it. * marks the point of attachment. Cbz = O=C(OCc1ccccc1)*

Legend:
β-catenin = β-catenin immunofluorescence and Western blot in CCSCs; format: cell-based, human; settings: MG132 25 μM, 3-methyladenine 10 mM, caspase 3 inhibitor 20 μM, calpain II inhibitor 25 μM
Description: FIGS. 9A, 9B, 9C, and 9D show quantification of β-catenin in the nucleus and cytoplasm of CCSCs with confocal microscopy (FIGS. 9A & 9B) after treatment with vehicle, aspirin, d-T3, and aspirin+d-T3.
As noted above, stability of the β-catenin complex by inactivation of APC leads to stabilization and nuclear translocation of β-catenin and to transcriptional activation of β-catenin target genes such as c-Myc and cyclin D1. […] Furthermore, d-T3 inhibition of CCSCs is associated with the downregulation of β-catenin, c-Myc, cyclin D1, and survivin as measured by Western blot in CCSCs (FIG. 9D).

CCSCs [1] = test: Annexin V FITC/PI flow cytometry apoptosis assay in CCSCs; format: cell-based, human; settings: CCSCs
Experimental: (§1) FIGS. 10A, 10B, 10C, and 10D show induction of apoptosis measured by flow cytometry (FIG. 10A) and confocal microscopy (FIG. 10B) in CCSCs after treatment with vehicle, aspirin, d-T3, and aspirin+d-T3. Effect of BID inhibitor on apoptosis in CCSCs after treatment with aspirin or d-T3 (FIG. 10C). Induction oft-BID in CCSCs after treatment with vehicle, aspirin, d-T3, and aspirin+d-T3 (FIG. 10D).
(§2) d-T3 can induce selective killing of CCSCs through the BH3 interacting-domain death agonist (BID). […] It should be noted that these in vitro results are consistent with the in vivo observation of the selective induction of apoptosis in APC mutant colon crypt cells in the ApcMin/+ mice but not in the normal intestinal cells of the AOM rat CRC model or NOD/SCID mice. […] Although the proapoptotic activity of d-T3 is a consistent observation of d-T3 anticancer activity in all of the published reports, the mechanism by which d-T3 induces apoptosis is poorly understood. Apoptotic death is regulated by the death receptor (extrinsic) and mitochondrial (intrinsic) pathways. These 2 pathways crosstalk under certain conditions through caspase-8-mediated cleavage of BID, a BH3-only Bcl-2 family member. The activated and truncated BID (tBID) then engages the intrinsic pathway for efficient apoptosis induction. To obtain preliminary information regarding the mechanisms by which d-T3 induces apoptosis in CCSCs, the activation of BID was measured after 24-hour treatment with vehicle, aspirin (5 mM), d-T3 (50 μM), and aspirin combined with d-T3 in CCSCs by Western blotting.

MiaPaCa-2 cell = MiaPaCa-2 cell viability at increasing concentrations; format: cell-based, human; settings: increasing concentrations
hCAS [2] = molecular target: T1, hCAS (Homo sapiens, UniProt P55060); test: Competitive affinity-isolation of hCAS in MiaPaCa-2 cell lysate; format: binding; settings: excess free compound
T1 construct: endogenous in cells; host or cells: MiaPaCa-2 human pancreatic cancer cells
T1 sequence (P55060 1-971): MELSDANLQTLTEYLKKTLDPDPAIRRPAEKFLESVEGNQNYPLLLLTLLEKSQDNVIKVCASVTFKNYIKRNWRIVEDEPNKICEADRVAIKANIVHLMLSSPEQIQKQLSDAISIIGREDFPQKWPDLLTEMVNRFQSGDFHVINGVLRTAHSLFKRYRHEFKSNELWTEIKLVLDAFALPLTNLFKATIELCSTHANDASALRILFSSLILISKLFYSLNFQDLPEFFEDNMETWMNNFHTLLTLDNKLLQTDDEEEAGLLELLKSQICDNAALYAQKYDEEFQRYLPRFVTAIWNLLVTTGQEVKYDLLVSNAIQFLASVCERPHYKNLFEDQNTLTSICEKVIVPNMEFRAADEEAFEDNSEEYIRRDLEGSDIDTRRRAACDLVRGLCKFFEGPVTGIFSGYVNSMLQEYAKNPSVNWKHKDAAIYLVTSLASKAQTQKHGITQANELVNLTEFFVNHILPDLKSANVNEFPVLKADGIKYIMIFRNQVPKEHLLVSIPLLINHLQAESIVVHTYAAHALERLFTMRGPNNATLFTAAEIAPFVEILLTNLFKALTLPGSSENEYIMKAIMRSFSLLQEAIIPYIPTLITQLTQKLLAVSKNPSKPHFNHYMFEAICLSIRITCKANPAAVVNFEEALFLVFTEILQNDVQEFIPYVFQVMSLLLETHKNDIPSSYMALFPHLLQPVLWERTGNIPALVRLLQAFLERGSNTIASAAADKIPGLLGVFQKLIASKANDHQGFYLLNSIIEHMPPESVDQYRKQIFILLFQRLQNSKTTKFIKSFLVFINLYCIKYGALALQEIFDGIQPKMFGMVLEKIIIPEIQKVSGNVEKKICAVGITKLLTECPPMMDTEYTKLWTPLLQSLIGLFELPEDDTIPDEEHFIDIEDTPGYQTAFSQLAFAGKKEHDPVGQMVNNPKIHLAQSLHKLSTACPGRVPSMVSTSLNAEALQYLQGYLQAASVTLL
Experimental: This experiment used a synthetic biotin-δ-tocotrienol conjugate (shown below to inhibit growth activity of cultured MiaPaca-2 human pancreatic cancer cells) to confirm affinity-isolation of hCAS. To confirm that δ-T3 binds to hCAS in intact cells, biotinylated δ-T3 (B-δ-T3) was prepared by chemically coupling the —OH group of δ-T3 to the —COOH of biotin using a PEG-iodoactamide linker (FIG. 18). […] Affinity-isolation of hCAS was inhibited in the presence of free δ-tocotrienol but not with free δ-tocopherol.

[3] = tested on: intestinal stem cells of ApcMin/+ mice; test: Caspase 3 staining of intestinal crypts in ApcMin/+ mice; format: in vivo; settings: small intestinal crypts of ApcMin/+ mice
Description: (§3) Although substantial preclinical evidence exists regarding the preventive activity of d-T3 and g-T3 in various types of cancers, there is no report of d-T3 prevention of colon cancer despite evidence of activity in colon cell lines and xenograft models. […] Treatment with aspirin alone reduced adenoma formation by 38%, and treatment with d-T3 alone reduced adenoma formation by 44%, while treatment with the combination of aspirin and d-T3 reduced adenoma formation by 58%.

human CCSCs = test: Orthotopic (cecum) model of luciferase expressing human CCSCs in NOD-SCID mice; format: in vivo
Experimental: FIGS. 8A, 8B, 8C, and 8D show growth of cecal tumor volume (FIGS. 8A & 8B) and liver metastasis score (FIGS. 8C & 8D) in orthotopic model of CCSCs after treatment with vehicle, aspirin, d-T3, and aspirin+d-T3.
In vivo model of human CCSC were developed by implanting the stably transfected luciferase expressing CCSCs in the cecum of NOD-SCID mice. In this model, tumor growth, metastasis, and survival are monitored twice weekly by IP injection of luciferin (150 mg/kg body weight) and imaged using the IVIS 200 Bioluminescence imaging system. […] These findings strongly indicate that d-T3 targets CCSCs and enhances the ability of aspirin to target these cells.

BID = test: Activation of BID (tBID) by Western blotting in CCSCs; format: cell-based, human; settings: 24-hour treatment; aspirin 5 mM, d-T3 50 μM
Experimental: as §1
as §2, with “These 2 pathways crosstalk under certain conditions through caspase-8-mediated cleavage of BID, a BH3-only Bcl-2 family member. The activated and truncated BID (tBID) then engages the intrinsic pathway for efficient apoptosis induction.” left out

ApcMin/+ mice = test: Adenoma (intestinal polyp) formation in ApcMin/+ mice; format: in vivo
Description: as §3, with “FIGS. 1A and 1B show the number of intestinal polyps (FIG. 1A) and H&E staining of polyps (FIG. 1B) in ApcMin/+ mice treated with vehicle (V), aspirin (Asp), d-T3, and combination of aspirin+d-T3. Black dots in FIG. 1B point out polyps in the intestine. Although” for “Although”

CCSCs [4] = test: miRNA profiles in CCSCs; format: cell-based, human; settings: 24-hour treatment; aspirin 5 mM, d-T3 10 μM
Description: Given the results, and without intending to be bound by any theory, it appears that the induction of apoptosis can be one mechanism by which d-T3 prevents CRC and augments CRC prevention activity. BID knockout can diminish this effect. The biorepository as well as materials generated from studies can be used to explore other mechanisms of d-T3 action such as anti-inflammatory, mediation of the immune system, anti-angiogenesis, and alterations in metabolism. To this end, miRNA profiles were conducted that are altered with d-T3, aspirin, and d-T3 with aspirin treatment in CCSCs. To discover early miRNAs that are likely to influence activity, these cells were deliberately treated with doses of these agents at a duration when there were no phenotypic changes of apoptosis.

colon polyps = settings: patients with stage I-III colon cancer following treatment; 27% without aspirin; cited from earlier work
hCAS [5] = molecular target: T1, hCAS; test: Streptavidin bead capture of hCAS from treated MiaPaCa-2 cells; format: binding; settings: MiaPaCa-2 cells treated 24 hours
Experimental: To confirm that δ-T3 binds to hCAS in intact cells, biotinylated δ-T3 (B-δ-T3) was prepared by chemically coupling the —OH group of δ-T3 to the —COOH of biotin using a PEG-iodoactamide linker (FIG. 18).
MiaPaCa-2 human pancreatic cancer cells were treated for 24 hours with biotin alone (B), B-δ-T3 or B-TOCOPH. The cells were then lysed, and the lysates incubated with streptavidin beads, and the captured proteins processed for Western blotting.

For Cn1cnc(N)c2ncnc1-2 [3-methyladenine, reference compound], which “effect on d-T3 induced degradation of β-catenin” value (β-catenin) is on record?
The value was “inhibited”.

Which results are given for COc1ccc(S(=O)(=O)NCCCC(=O)Nc2ccc(Sc3ccc(N)cc3)cc2)cc1 [BI-6C9]?
effect of BID inhibitor on induction of apoptosis by aspirin (CCSCs [1]): not; effect of BID inhibitor on induction of apoptosis by d-T3 (CCSCs [1]): negates the induction of apoptosis

For CC(C)C[C@@H](C=O)NC(=O)[C@H](CC(C)C)NC(=O)[C@H](CC(C)C)NC(=O)OCc1ccccc1 [MG132, reference compound] (Cbz-Leu-Leu-Leu-aldehyde), which “effect on d-T3 induced degradation of β-catenin” value (β-catenin) is on record?
The value was “inhibited”.

With Cc1cc(O)cc2c1O[C@](C)(CCC[C@H](C)CCC[C@H](C)CCCC(C)C)CC2 [TOCOPH, δ-Tocopherol, reference compound] as the compound, how does the “effect on cell viability” value (MiaPaCa-2 cell) read?
The value was “least effect”.

What about the “affinity-isolation of hCAS / hCAS binding to biotin-T3 in presence of free competitor” value (hCAS [2]) of the same compound?
The value was “does not”.

And the “affinity-isolation of hCAS / hCAS binding to biotin-T3 in presence of free competitor” value (hCAS [2]; listed as δ-tocopherol)?
Its value is “not”.

With CC(=O)Oc1ccccc1C(=O)O [aspirin, reference compound] as the compound, how does the “apoptosis detected by caspase 3 staining” value [3] read?
The value was “minimal to no staining”.

And the “growth of human CRC stem cells (cecal tumor)” value (human CCSCs)?
Its value is “inhibited”.

And the “metastases of human CRC stem cells” value (human CCSCs; liver metastasis)?
Its value is “inhibited”.

What about the “activation of tBID” value (BID) of the same compound?
The value was “did not”.

What about the reduced adenoma formation (ApcMin/+ mice) of the same compound?
Its reduced adenoma formation is 38%.

And the “down-regulation of miRNAs compared with vehicle (number)” value (CCSCs [4])?
Its value is 4 miRNAs.

What about the “up-regulation of miRNAs compared with vehicle (number)” value (CCSCs [4]) of the same compound?
Its value is 2 miRNAs.

What about the “rate of polyp formation at 1-year colonoscopy” value (colon polyps) of the same compound?
Its value is 17%.

For O=C(O)CCCC[C@@H]1SC[C@@H]2NC(=O)N[C@@H]21 [biotin], which “hCAS bound by streptavidin beads from lysates of treated cells” value (hCAS [5]) is on record?
The value was “not”.
